Data published in patent US6413967B1, “Inhibition of novel calcium entry pathway in electrically non-excitable cells acting as an anti-proliferative therapy” (The University of Virginia Patents Foundation, priority 1995, dated 2002).

Assays:
[1] = system: [Ca^2+]i in Jurkat T cells; assay: receptor-stimulated Ca2+ influx in Jurkat T cells (anti-CD3 mAb OKT3); assay type: cell-based, human; set-up: key to T cell [Ca^2+]i (pre) / T cell [Ca^2+]i: NE: no effect; ND: not determined; details: 10 or 30 μM drug; for T cell [Ca^2+]i: effect the same post- and pre- T cell receptor stimulation; for T cell [Ca^2+]i (post): drug added post T cell receptor stimulation; for T cell [Ca^2+]i (pre): drug added pre T cell receptor stimulation
Procedure: Initially, all drugs are screened using Jurkat T cells incubated with indo-1/AM as outlined below. In the event that there is an effect of the drug on the maximum [Ca^2+]i reached following treatment of the cells with the anti-CD3 mAb […], the drug is evaluated for any effects on the spectral characteristics of indo-1 as outlined in Haverstick and Gray, Mol. Biol. Cell (1993) 4:173. If there is an effect of the drug on the spectral characteristics of indo-1 , the drug is further examined for spectral effects on the combination of fura-red and fluo-3. If there is no effect of the drug on the fura-red/fluo-3 combination, the drug is examined for effects on the maximum [Ca^2+]i reached following OKT3 treatment of cells incubated with 5 μM fura-red and […] as outlined below.
Jurkat cells are incubated in RPMI-1640 plus 5% fbs in the presence of the acetoxymethyl ester of either indo-1 (1 μM) or the combination of fura-red (5 μM) with fluo-3 (1 μM) for one hour at 37° C. Cells are washed three times in buffer A [[…] 4-(2-hydroxyethyl)-1-piperazine ethanesulfonic acid (HEPES), pH 7.4, 3 MM KCl, 1 mM MgCl2, 1 mM CaCl2, 140 mM NaCl, 0.1% glucose] containing 1% fbs and suspended to a final concentration of 1×10^6/ml. Cells are then placed in the 37° C. jacketed cell holder of the SLM 8000C. Antigen receptor engagement is mimicked by the addition of the anti-CD3 monoclonal antibody OKT3 (Gray et al, J. Exp. Med. (1988) 167:1963; Gray et al, J. Immunol. 142:1631). The effect of drug added prior to receptor stimulation or at the plateau phase of Ca^2+ entry is determined as follows:
Prior drug: 10 or 30 μM drug @ 30 seconds, 1 μg/ml OKT3 at 90 seconds
Post drug: 1 μg/ml OKT3 at 30 second, 10 or 30 μM drug @ 120 seconds

[2] = system: MDA-468 human breast cancer cells; assay: MDA-468 cell proliferation, tetrazolium dye; assay type: cell-based; set-up: key to MDA PROLIF: NE: no effect; ND: not determined; details: human breast cancer cell proliferation, 48 hours
Procedure: (§1) The effect of various drugs on the proliferation of Jurkat T cells, MDA-468 human breast cancer cells and PC3 human prostate cancer cells was determined by incubating the cells with the indicated concentrations of drug for 48 hours. The number of viable cells remaining at the end of the incubation period was evaluated using the procedure outlined in Example 4.
(§2) Cells are plated in triplicate in a 96-well flat-bottomed plate (Jurkat: 5e4 cells/well in RPMI-1640 plus 5% fbs; MDA468: 2.5e4 per well in DMEM plus 5% fbs and 11 μg/ml insulin) in the absence (control) or presence of drug at 3, 10, 30, and 100 μM. An additional control of 100 μM drug in RPMI-1640 plus 5% fbs or DMEM plus 5% fbs and 11 μg/Ml insulin with no cells is included with each run to control for possible drug interactions with the dye. The plate is then placed in a 5% CO2 37° C. incubator for 44 to 48 hours. 20 μl of dye solution containing a tetrazolium dye (3-(4,5-dimethylthiazol-2-yl)-5-(3-carboxymethoxyphenyl)-2-(4-sulfophenyl)-2H-tetrazolium, Owen's reagent) plus coupling reagent (phenazine methosulfate) is added to each well, the plate is returned to the incubator, and the absorbance at 490 nm is read using an ELISA plate reader 3 to 4 h (Jurkat cells) or 2 to 3 h (MDA-468 cells) later. All data are presented as percent of control (no drug addition). With this protocol, it is possible to determine the effect of 5 drugs at 4 concentrations in a single 96-well plate as outlined below: […]

Jurkat T cells = assay: Jurkat cell proliferation, tetrazolium dye; assay type: cell-based, human; set-up: key to T cell PROLIF: NE: no effect; ND: not determined; details: 48 hours
Procedure: as §1, §2

[3] = system: [Ca^2+]i in MDA-468 cells; assay: EGF receptor-stimulated Ca2+ influx in MDA-468 cells; assay type: cell-based, human; set-up: key: NE: no effect; ND: not determined; details: for MDA [CA^2+]i: effect the same post- and pre- EGF receptor stimulation
Procedure: MDA468 cells are incubated with either indo-1 or the combination of fura-red/fluo-3 for 1 hour while still adherent in the maintenance flask in DMEM plus 5% fbs and 1 μg/ml insulin. Cells are removed by gentle scraping and washed three times in buffer A containing 1% charcoal stripped fbs (Nelson et al, Br. J. Cancer (1991) 63:933). The cells are then suspended to a final concentration of 1e6/ml and used as above in the SLM. For the human breast cancer cells, Ca^2+ entry is stimulated by the addition of 25 ng/ml EGF, rather than the antibody used above.

SMILES | T cell [Ca^2+]i [1] | MDA PROLIF [2] | T cell [Ca^2+]i (post) [1] | T cell [Ca^2+]i (pre) [1] | T cell PROLIF (Jurkat T cells) | MDA [CA^2+]i [3] | MDA [CA^2+]i (pre) ([3]; drug added pre EGF receptor stimulation)
COc1cc(CCO)ccc1O [3-methoxy, 4-hydroxyphenylethanol] | NE | NE |  |  |  |  | 
COc1cc(C(O)C(O)CO)ccc1O (centres unmarked) [3-methoxy, 4-hydroxyphenylglycerol] | NE | NE |  |  |  |  | 
Nc1cc(-c2ccncc2)c[nH]c1=O [amrinone] | NE | NE |  |  |  |  | 
CC(C)COCC(CN(Cc1ccccc1)c1ccccc1)N1CCCC1 (centres unmarked) [bepridil] |  | ↓ | ↓ (post) | NE (pre) | ↓ | ↑ | 
CC(NC(C)(C)C)C(=O)c1cccc(Cl)c1 (centres unmarked) [bupropion] | NE | NE |  |  | NE |  | 
CN1CCN(C(c2ccccc2)c2ccc(Cl)cc2)CC1 (centres unmarked) [chlorcyclizine] | NE | ↓ |  |  |  | ↑ | 
C(=C\c1ccccc1)/CN1CCN(C(c2ccccc2)c2ccccc2)CC1 [cinnarizine] | ↓ | NE |  |  | ↓ | NE | 
COc1cc(/C=C/C(=O)CC(=O)/C=C/c2ccc(O)c(OC)c2)ccc1O [curcumin] |  | NE |  |  | ↓ |  | 
CN1CCN(C(c2ccccc2)c2ccccc2)CC1 [cyclizine] | NE | NE |  |  |  |  | 
O=C1CN(/N=C/c2ccc(-c3ccc([N+](=O)[O-])cc3)o2)C(=O)N1 [datrolene] | NE | NE |  |  |  | NE | 
CCN(CC)C(=O)N1CCN(C)CC1 [diethylcarbamazine] | NE | NE |  |  | NE | NE | 
OCCOCCN1CCN(C(c2ccccc2)c2ccc(Cl)cc2)CC1 (centres unmarked) [hydroxyzine] | NE | NE |  |  | NE |  | 
COC(=O)C1=C(C)NC(C)=C(C(=O)OC(C)C)C1c1cccc2nonc12 (centres unmarked) [isradipine] | ↓ | NE |  |  | NE |  | 
Cc1cccc(C)c1NC(=O)CN1CCN(CCCC(c2ccc(F)cc2)c2ccc(F)cc2)CC1 [lidoflazine] | ↓ | (↓) |  |  | ↓ |  | 
Cc1cccc(CN2CCN(C(c3ccccc3)c3ccc(Cl)cc3)CC2)c1 (centres unmarked) [meclizine] |  | NE | ↓ (post) | NE (pre) | (↓) |  | 
CN1CCN2c3ccccc3Cc3ccccc3C2C1 (centres unmarked) [mianserin] | NE | NE |  |  | NE |  | 
COC(=O)C1=C(C)NC(C)=C(C(=O)OCCN(C)Cc2ccccc2)C1c1cccc([N+](=O)[O-])c1 (centres unmarked) [nicardipine] |  |  |  |  |  | NE | 
O=C(O)c1cccnc1Nc1cccc(C(F)(F)F)c1 [niflumic acid] |  | NE | ↓ (post) | NE (pre) | (↓) |  | 
CCn1cc(C(=O)O)c(=O)c2cnc(N3CCNCC3)nc21 [pipenidic acid] | NE | NE |  |  | NE |  | 
c1ccc2nc(N3CCNCC3)ccc2c1 [quipazine] | NE | NE |  |  |  |  | 
COc1ccc2cc1Oc1ccc(cc1)C[C@H]1c3cc(c(OC)cc3CCN1C)Oc1c(OC)c(OC)cc3c1[C@H](C2)N(C)CC3 [tetrandrine, 6,6′,7,12-tetramethoxy-2,2′-dimethyl-baman] |  |  |  | NE (pre) |  |  | NE (pre)
Cc1nc(C)c(C)nc1C [tetranethylpyrazine] | NE | NE |  |  |  |  | 
O=c1n(CCCN2CCN(c3cccc(Cl)c3)CC2)nc2ccccn12 [trazodone] | NE | NE |  |  | NE |  | 
